The values below come from the Kinase Knowledgebase extract (Sharma et al. 2016).

The assay has as its target CDK2 (human) (UniProt P24941). The assay can be described thus: Enzyme Assay.

Molecules are shown by their SMILES.

For orientation: IC50 means the point on the concentration scale where inhibition reaches its midpoint. Turning to `CC(C)(C)c1ccc2c(c1)C(=CNCc1cc(O)ccc1-c1ccoc1)C(=O)NC2=O`, the IC50 stood at 13.1 µM.
The same measure for `C=CCOc1ccc(CN/C=C2\C(=O)NC(=O)c3ccc(Br)cc32)cc1O`: 29 µM.
The same measure for `COc1cnc(CNC=C2C(=O)NC(=O)c3ccc(-n4cccc4)cc32)cc1O`: 2.4 µM; for `CC(C)(C)c1ccc2c(c1)C(=CNCc1ccc(-c3ccoc3)c(O)c1)C(=O)NC2=O`: 13.1 µM.
`O=C1NC(=O)c2ccccc2/C1=C/Nc1ccc(CN2CCCCC2)cc1` registered an IC50 of 23 µM.
On to `CCCOc1ccc(CN/C=C2\C(=O)NC(=O)c3ccc(I)cc32)nc1O`, for which the IC50 was found to be 0.7 µM.
`Cc1cccc(-c2ccc3c(c2)C(=CNCc2ccc(O)c(O)c2)C(=O)NC3=O)c1` returned an IC50 of 50 µM. Compared with the last compound, the IC50 is about 71-fold higher.
The same measure for `COc1ccc(CNC=C2C(=O)NC(=O)c3ccc(-c4ccc5ccccc5c4)cc32)cc1O`: 50 µM.
The same measure for `O=C1NC(=O)c2ccc(Br)cc2/C1=C/NCc1ccc(OCCO)c(O)c1`: 50 µM; for `O=C1NC(=O)c2ccc(-c3ccoc3)cc2/C1=C/NCc1ccc(OC(F)F)c(O)c1`: 50 µM; for `CC(=O)Nc1ccc(CN/C=C2\C(=O)NC(=O)c3ccc(Br)cc32)cc1O`: 50 µM.
